Drawing on patent US8822503B2, “2-pyridone compounds” (Taisho Pharmaceutical Co., Ltd, priority 2009, dated 2014), this text covers EC50 for 33 compounds.

One may read the EC50 as the concentration at which the effect is half-maximal. Lower therefore signals greater potency.

Structures are written as SMILES.

The experiment addresses T1, human liver GK (Homo sapiens, UniProt P35557).
T1 construct: GST (glutathione S-transferase) (N); made in house; host or cells: E. coli
T1 sequence (P35557 1-466 isoform P35557-2): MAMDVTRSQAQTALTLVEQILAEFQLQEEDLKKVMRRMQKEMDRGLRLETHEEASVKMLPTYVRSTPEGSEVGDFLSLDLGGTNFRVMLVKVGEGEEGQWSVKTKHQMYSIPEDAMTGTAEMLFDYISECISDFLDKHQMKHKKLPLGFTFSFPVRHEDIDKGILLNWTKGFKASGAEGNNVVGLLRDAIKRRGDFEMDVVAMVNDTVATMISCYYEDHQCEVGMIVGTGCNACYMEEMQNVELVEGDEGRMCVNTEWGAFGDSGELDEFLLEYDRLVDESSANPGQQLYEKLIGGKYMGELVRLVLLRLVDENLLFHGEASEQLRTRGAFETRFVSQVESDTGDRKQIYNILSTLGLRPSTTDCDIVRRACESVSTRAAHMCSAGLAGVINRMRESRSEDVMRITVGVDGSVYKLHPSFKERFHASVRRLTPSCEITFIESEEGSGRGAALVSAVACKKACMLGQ
Nature of the experiment: GK activation test. The format is biochemical. The conditions noted are these: test compound concentration needed to activate 50% of maximum activation ability; 4 mM 14C-labeled glucose, 2 mM ATP, room temperature, 20 minutes. The essentials: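 GST-tagged human liver GK from E. coli (0.24 μg/well) with 4 mM 14C-glucose, 2 mM ATP in Hepes-KOH pH 7.1, KCl, MgCl2, DTT, 1% DMSO, 20 min room temperature. Labeled glucose 6-phosphate captured on anion resin, eluted and counted. EC50 = concentration giving half of maximal activation.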
`O=C1CC[C@H](/C=C(/c2ccc(C3CC3)c(=O)[nH]2)c2ccc(F)cc2O)N1` [Example 4-122, 3-Cyclopropyl-6-{(E)-1-(4-fluoro-2-hydroxyphenyl)-2-[(2R)-5-oxopyrrolidin-2-yl]ethenyl}pyridin-2(1H)-one] gave an EC50 of 10 to 500 nM.

For the compound `CCOc1ccc(/C(=C\[C@H]2CCC(=O)N2)c2ccc(C3CC3)c(=O)[nH]2)c(Cl)c1` [Example 4-286, 6-{(E)-1-(2-Chloro-4-ethoxyphenyl)-2-[(2R)-5-oxopyrrolidin-2-yl]ethenyl}-3-cyclopropylpyridin-2(1H)-one], the 50% effective concentration (EC50) lay in the range of 10 to 500 nM. The value for `CCOc1ccc(/C(=C\[C@H]2CCC(=O)N2)c2ccc(C3CC3)c(=O)[nH]2)cc1Cl` [Example 4-10, 6-{(E)-1-(3-Chloro-4-ethoxyphenyl)-2-[(2R)-5-oxopyrrolidin-2-yl]ethenyl}-3-cyclopropylpyridin-2(1H)-one] was 10 to 500 nM; that for `Cc1ccc([C@@]2(c3ccc(S(C)(=O)=O)c(Cl)c3)C[C@@H]2C2CCCC2)[nH]c1=O` (relative stereo) [Example 3-2, trans-6-{1-[3-Chloro-4-(methylsulfonyl)phenyl]-2-cyclopentylcyclopropyl}-3-methylpyridin-2(1H)-one] was 500 to 3000 nM; that for `CCS(=O)(=O)c1ccc(/C(=C\[C@H]2CCC(=O)N2)c2ccc(Cl)c(=O)[nH]2)cc1Cl` [Example 4-58, 3-Chloro-6-{(E)-1-[3-chloro-4-(ethylsulfonyl)phenyl]-2-[(2R)-5-oxopyrrolidin-2-yl]ethenyl}pyridin-2(1H)-one] was 500 to 3000 nM. As for `Cc1ccc(/C(=C/C2CCCC2)c2ccc(S(C)(=O)=O)nc2)[nH]c1=O` [Example 1-35, 6-{(E)-2-Cyclopentyl-1-[6-(methylsulfonyl)pyridin-3-yl]ethenyl}-3-methylpyridin-2(1H)-one], the EC50 fell in the range of 500 to 3000 nM.

In the case of `O=C1CC[C@H](/C=C(\c2ccc(C(F)(F)F)cc2)c2ccc(OCCCO)c(=O)[nH]2)N1` [Example 4-170, 3-(3-Hydroxypropoxy)-6-{(E)-2-[(2R)-5-oxopyrrolidin-2-yl]-1-[4-(trifluoromethyl)phenyl]ethenyl}pyridin-2(1H)-one], the EC50 lay in the range of 3000 to 10000 nM. Compound `O=C1CCCN1C/C=C(\c1ccc(S(=O)(=O)C2CC2)cc1)c1ccc(Cl)c(=O)[nH]1` [Example 6-20, 3-Chloro-6-[(1E)-1-[4-(cyclopropylsulfonyl)phenyl]-3-(2-oxopyrrolidin-1-yl)prop-1-en-1-yl]pyridin-2(1H)-one] gave an EC50 of 500 to 3000 nM. `Cc1ccc(C(CC2CCC(=O)CC2)c2ccc(S(C)(=O)=O)cc2)[nH]c1=O` (stereo not drawn) [Example 2-21, 3-Methyl-6-{1-[4-(methylsulfonyl)phenyl]-2-(4-oxocyclohexyl)ethyl}pyridin-2(1H)-one]: the EC50 lay within 3000 to 10000 nM. In the case of `CC(C)COc1ccc(/C(=C\[C@H]2CCC(=O)N2)c2ccc(Cl)c(=O)[nH]2)cc1Cl` [Example 4-22, 3-Chloro-6-{(E)-1-[3-chloro-4-(2-methylpropoxy)phenyl]-2-[(2R)-5-oxopyrrolidin-2-yl]ethenyl}pyridin-2(1H)-one], the EC50 is 10 to 500 nM. `COCCCCc1ccc(/C(=C\[C@H]2CCC(=O)N2)c2ccc(Cl)c(=O)[nH]2)cc1` [Example 4-73, 3-Chloro-6-{(E)-1-[4-(4-methoxybutyl)phenyl]-2-[(2R)-5-oxopyrrolidin-2-yl]ethenyl}pyridin-2(1H)-one] returned an EC50 of 500 to 3000 nM. The figure for `COc1ccc(C(C[C@H]2CCC(=O)N2)c2ccc(C3CC3)c(=O)[nH]2)cc1Cl` (single isomer, unassigned) [Example 4-326] is 10 to 500 nM. Turning to `CC(C)(C)c1ccc(C(C[C@@H]2CCC(=O)N2)c2ccc(Cl)c(=O)[nH]2)cc1` (single isomer, unassigned) [Example 4-77], the EC50 lay within 3000 to 10000 nM.

`CCCc1ccc(/C(=C\[C@H]2CCC(=O)N2)c2ccc(Cl)c(=O)[nH]2)cc1` [Example 4-16, 3-Chloro-6-[(E)-2-[(2R)-5-oxopyrrolidin-2-yl]-1-(4-propylphenyl)ethenyl]pyridin-2(1H)-one]: the EC50 lay within 500 to 3000 nM. Take `CSc1ccc(C(CC2CCCC2)c2ccc(C)c(=O)[nH]2)cc1Cl` (stereo not drawn) [Example 2-4, 6-{1-[3-Chloro-4-(methylsulfanyl)phenyl]-2-cyclopentylethyl}-3-methylpyridin-2(1H)-one]: the EC50 is 500 to 3000 nM. The figure for `CC(C)Oc1ccc(C(C[C@H]2CCC(=O)N2)c2ccc(C3CC3)c(=O)[nH]2)cc1F` (single isomer, unassigned) [Example 4-350] is 10 to 500 nM; for `COc1ccc(/C(=C\C2CCOCC2)c2ccc(C3CC3)c(=O)[nH]2)cc1` [Example 1-51, 3-Cyclopropyl-6-[(E)-1-(4-methoxyphenyl)-2-(tetrahydro-2H-pyran-4-yl)ethenyl]pyridin-2(1H)-one] it is 500 to 3000 nM; for `CC(C)(C)c1ccc(/C(=C\CO)c2ccc(Cl)c(=O)[nH]2)cc1` [Example 6-1, 6-[(1E)-1-(4-tert-Butylphenyl)-3-hydroxyprop-1-en-1-yl]-3-chloropyridin-2(1H)-one] it is 3000 to 10000 nM. As for `O=c1[nH]c(/C(=C/[C@H]2CC[C@H](O)CC2)c2ccc(SC3CC3)cc2)ccc1C(F)(F)F` [Example 1-90, 6-[(E)-1-[4-(Cyclopropylsulfanyl)phenyl]-2-(trans-4-hydroxycyclohexyl)ethenyl]-3-(trifluoromethyl)pyridin-2(1H)-one], the EC50 lay within 10 to 500 nM. For the compound `CCc1cc(/C(=C\[C@H]2CCC(=O)N2)c2ccc(C3CC3)c(=O)[nH]2)ccc1Cl` [Example 4-125, 6-{(E)-1-(4-Chloro-3-ethylphenyl)-2-[(2R)-5-oxopyrrolidin-2-yl]ethenyl}-3-cyclopropylpyridin-2(1H)-one], the EC50 lay within 10 to 500 nM. `CC(C)(C)c1ccc(C(C[C@H]2CCC(=O)N2)c2ccc(C3CC3)c(=O)[nH]2)cc1` (stereo partly drawn) [Example 4-358, 6-{1-(4-tert-Butylphenyl)-2-[(2R)-5-oxopyrrolidin-2-yl]ethyl}-3-cyclopropylpyridin-2(1H)-one] came in with an EC50 of 10 to 500 nM. The compound `CC(C)(C)c1ccc(/C(=C\N2CCCC2=O)c2ccc(Cl)c(=O)[nH]2)cc1` [Example 6-14, 6-[(E)-1-(4-tert-Butylphenyl)-2-(2-oxopyrrolidin-1-yl)ethenyl]-3-chloropyridin-2(1H)-one] displayed an EC50 of 500 to 3000 nM. Compound `Cc1c[nH]n(C/C=C(\c2ccc(C(C)(C)C)cc2)c2ccc(Cl)c(=O)[nH]2)c1=O` [Example 6-37, 6-[(1E)-1-(4-tert-Butylphenyl)-3-(4-methyl-5-oxo-2,5-dihydro-1H-pyrazol-1-yl)prop-1-en-1-yl]-3-chloropyridin-2(1H)-one] had an EC50 of 500 to 3000 nM.

Take `O=C1CC[C@H](CC(c2ccc(F)c(Cl)c2)c2ccc(C3CC3)c(=O)[nH]2)N1` (single isomer, unassigned) [Example 4-211]: the EC50 lay within 500 to 3000 nM. As for `Cc1ccc(/C(=C/CC2CCCC2)c2ccc(SC3CC3)cc2)[nH]c1=O` [Example 1-36, 6-{(1E)-3-Cyclopentyl-1-[4-(cyclopropylsulfanyl)phenyl]prop-1-en-1-yl}-3-methylpyridin-2(1H)-one], the EC50 lay in the range of 10 to 500 nM.

`CC(C)(C)c1ccc(C(C[C@H]2CCC(=O)N2)c2ccc(OC(F)F)c(=O)[nH]2)cc1` (single isomer, unassigned) [Example 4-246]: the EC50 lay in the range of 500 to 3000 nM. The figure for `Cc1cc(C(C[C@H]2CCC(=O)N2)c2ccc(C3CC3)c(=O)[nH]2)ccc1C(F)F` (single isomer, unassigned) [Example 4-232] is 3000 to 10000 nM. In turn, `O=C1CC[C@H](/C=C(\c2ccc3c(c2)CCO3)c2ccc(C3CC3)c(=O)[nH]2)N1` [Example 4-123, 3-Cyclopropyl-6-{(E)-1-(2,3-dihydro-1-benzofuran-5-yl)-2-[(2R)-5-oxopyrrolidin-2-yl]ethenyl}pyridin-2(1H)-one] showed an EC50 of 10 to 500 nM. The figure for `CC(C)NC(=O)Nc1ccc(/C(=C\[C@H]2CCC(=O)N2)c2ccc(Cl)c(=O)[nH]2)cc1` [Example 4-156, 1-(4-{(E)-1-(5-Chloro-6-oxo-1,6-dihydropyridin-2-yl)-2-[(2R)-5-oxopyrrolidin-2-yl]ethenyl}phenyl)-3-propan-2-ylurea] is 3000 to 10000 nM. The compound `COc1cc(/C(=C\[C@H]2CCC(=O)N2)c2ccc(C3CC3)c(=O)[nH]2)ccc1Cl` [Example 4-124, 6-{(E)-1-(4-Chloro-3-methoxyphenyl)-2-[(2R)-5-oxopyrrolidin-2-yl]ethenyl}-3-cyclopropylpyridin-2(1H)-one] had an EC50 of 10 to 500 nM. In turn, `CN1CCN(S(=O)(=O)c2ccc(/C(=C\[C@H]3CCC(=O)N3)c3ccc(Cl)c(=O)[nH]3)cc2)CC1` [Example 4-61, 3-Chloro-6-{(E)-1-{4-[(4-methylpiperazin-1-yl)sulfonyl]phenyl}-2-[(2R)-5-oxopyrrolidin-2-yl]ethenyl}pyridin-2(1H)-one] returned an EC50 of 500 to 3000 nM. Compound `Cc1ccc(/C(=C\[C@H]2CCC(=O)N2)c2ccc(Cl)c(=O)[nH]2)c(C)c1` [Example 4-31, 3-Chloro-6-{(E)-1-(2,4-dimethylphenyl)-2-[(2R)-5-oxopyrrolidin-2-yl]ethenyl}pyridin-2(1H)-one] yielded an EC50 of 3000 to 10000 nM. On to `CC(C)Oc1ccc(C(C[C@H]2CCC(=O)N2)c2ccc(Cl)c(=O)[nH]2)cc1Cl` (single isomer, unassigned) [Example 4-297], for which the EC50 lay in the range of 3000 to 10000 nM.
